Results on three molecules are retold here after publication PMC9856199, “Intact Transition Epitope Mapping—Force Differences between Original and Unusual Residues (ITEM-FOUR)” (Biomolecules, 2023).

Peptide text beside a SMILES is read from it.

Broadly, the Kd is the equilibrium constant for the complex coming apart.

Holding throughout (assay type): binding
In assay [1] the target is monoclonal anti-hcTn I antibody [MF4] (ab38210 from Abcam). The assay can be described thus: ITEM-FOUR: nanoESI-MS gas-phase dissociation of antibody-peptide immune complexes. The conditions noted are these: for KD m0g#: apparent gas-phase dissociation constant, unitless number; for KD m0g# / kD m0g#: mean charge state, extrapolated to no excess energy; for kD m0g#: apparent gas-phase dissociation rate constant; for ΔGm0g# / ΔHm0g# / TambΔSm0g#: apparent, gas-phase immune complex dissociation; for TambΔSm0g#: Tamb 298 K; for binder group by ITEM-FOUR: grouping by ΔHm0g# and binding behaviour in the gas phase; for Initial [%] (immune complex amount at the lowest applied ∆CV): normalized educt ion intensity at ∆CV 2 V; for Initial [%] (immune complex amount at the lowest applied ∆CV) / Final [%] (immune complex amount at the highest applied ∆CV): antibody:peptide 1:2.2, 200 mM ammonium acetate pH 6.7, averaged from all measurements; for Final [%] (immune complex amount at the highest applied ∆CV): normalized educt ion intensity at ∆CV 80 V; for Slope: slope of tangent along steep part of Boltzmann curve. As to the method:
Starting materials and antibody-peptide complex-containing solutions were prepared as previously described. In brief, an aliquot of 25 µL (50 µg) of the monoclonal anti-hcTn I antibody [MF4] (ab38210 from Abcam, Cambridge, United Kingdom) was placed on a 10K centrifugal filter device (Merck Millipore, Carrigtwohill, Ireland) with 400 µL 200 mM ammonium acetate, pH 6.7. After centrifugation at 13,000 rpm for 7 min in an Eppendorf centrifuge (MiniSpin, Eppendorf, Hamburg, Germany), the flow through was discarded and the filter was filled-up with 450 µL 200 mM ammonium acetate, pH 6.7. This centrifugation/discarding/refilling step was repeated eight times. Afterwards, the filter was placed upside down in a new tube and centrifuged for 5 min at 4500 rpm. Approximately 50 µL of antibody solution were collected (solution 1). […] Synthesized hcTn I peptides (Table 1) were purchased as lyophilized powders (peptides and elephants, Hennigsdorf, Germany) and dissolved in 200 mM ammonium acetate, pH 6.7, to obtain peptide concentrations of ca. 2.0 mg/mL, each. The actual peptide concentrations of individual peptide solutions were determined using the Qubit^TM 2.0 Fluorometer assay. Afterwards, all peptide solutions were diluted 1:100 with 200 mM ammonium acetate, pH 6.7 (solution 2). To obtain immune-complex-containing mixtures, the antibody solution (solution 1) and the peptide solution (solution 2) were mixed to obtain final molar antibody-peptide ratios of 1:2.2 (solution 3). Typically, 4 µL of antibody solution were mixed with the appropriate volume (typically 1–2 µL) of the individual peptide solution. Solutions 3 were incubated at room temperature for at least 1 h.
For each ITEM-FOUR examination, 3 µL of the peptide, antibody, or immune complex-containing solution were loaded into nanoESI capillaries that were pulled and gold coated in house. NanoESI-MS measurements were performed with a Synapt G2-S mass spectrometer (Waters MS-Technologies, Manchester, United Kingdom) with the following settings for ITEM-FOUR measurements: capillary voltage, 1.8 kV; source temperature, 40 °C; source offset voltage, 110 V; sample cone voltage, 110 V; cone gas flow, 100 L/h; trap gas flow, 8.0 mL/min; transfer collision cell voltage, 2 V. Measurements were acquired in positive-ion resolution mode, applying a mass window of m/z 200–8000. This mass range was calibrated using 1 mg/mL sodium iodide dissolved in isopropanol/water (50:50, v/v). The quadrupole analyzer was used with the following settings: M1 = 4000, dwell time, and ramp time 25%; M2 = 5000, dwell time, and ramp time 25%; and M3 = 6000 to block transmission of lower molecular weight ions. The first collision cell (TRAP) was used to dissociate antibody-peptide complexes by increasing the collision cell voltage difference (∆CV) in a stepwise manner every 60 s. The collision cell voltage difference steps were: 2, 4, 6, 8, 12, 16, 20, 30, 40, 50, 60, 70, and 80 V. Measurements were repeated at least twice (up to seven times) per immune complex, generating a total of 32 measurement series. The mass spectrometry proteomics data have been deposited to the ProteomeXchange Consortium via the PRIDE [33] partner repository with the dataset identifier PXD038365.
MassLynx version 4.1 (Waters MS-Technologies) was used for data analysis as described previously. First, the scans of each ∆CV setting encompassing 60 s of recording were combined to generate an average mass spectrum for each ∆CV step. Next, the mass spectra were smoothened in 20 cycles with a window of 10 using the Savitzky-Golay algorithm. The ion intensities of all molecular species and their corresponding charge states (complex ions, complex-released peptides, and antibody fragments) were read after smoothing. A bell-shaped Gaussian curve of the intensities of each molecular species was calculated using Origin 2017 (32-bit) SR2 (OriginLab Corporation, Northampton, MA, USA). […]

For assay [2] the target is unchanged. As to the kind of experiment: Isothermal titration calorimetry of immune complex formation in solution. The conditions noted are these: for ∆H / ∆G: immune complex formation in solution; for ∆H: 298 K; for ∆G: calculated from KA (van´t Hoff equation); for T∆S: T = 298 K, calculated with Gibbs-Helmholtz equation. Here is the method: The monoclonal anti-hcTn I antibody [MF4] (ab38210 from Abcam, Cambridge, United Kingdom) was stored in PBS (0.138 M NaCl; 0.0027 M KCl, pH 7.4 from Sigma-Aldrich, St. Louis, MO, US), pH 7.4, and was used as purchased. The hcTn I peptides 1, 2, 4, 6, 7, and 8 were dissolved in PBS and stock solutions with 0.32 to 0.93 mg/mL peptide concentrations were prepared.
Isothermal titration calorimetry measurements were performed with an Affinity ITC instrument (Waters|TA Instruments, New Castle, DE, USA) at T = 298 K equipped with a 190 µL sample cell and a matching reference cell, AccuShot for precise delivery of the titrant, and a Flex Spin for slow speed stirring (125 rpm), efficient mixing, and highest sensitivity. The anti-hcTn I antibody was placed in the sample cell at 1.95 µM (in PBS). The hcTn I peptides, each at 40 µM (in PBS), were automatically titrated to the antibody in 18–20 steps (2 µL per step). The time between titrations was 200 s to establish a baseline between each injection for accurate heat determination and modeling.
The integrated areas under each injection peak (heat over time) were plotted against the active species’ respective molar ratios ranging from 1:0.4 to 1:6.6. An independent binding model was chosen to fit all the data and directly determine the enthalpy (ΔH) and association constant (KA). Gibbs free energy (ΔG) is calculated from the KA using the van´t Hoff equation. The change in entropy term (ΔS) is calculated applying the Gibbs-Helmholtz equation.

In the next assay the test system is anti-Histag antibody. The assay can be described thus: nanoESI-MS of peptide mixed with unrelated antibody (specificity control). The conditions noted are these: binary mixture, 200 mM ammonium acetate pH 6.7. As to the method:
Figure S15. Nano-ESI mass spectra of Troponin I peptide 7 (ENREVGDWPKNIDAL) upon incubation with anti-Histag […]
ion signal) and (b) with blocked transmission of low mass ions (< 4800 ) and collision cell voltage differences of 2V and (c) with blocked transmission of low mass ion (< 4800) and collision cell voltage differences of 80V. Charge states are given for […]
Antibody fragment ion signals are visible between m/z 1200 and 2300 in (c). Solvent: 200 mM ammonium acetate, pH 6.7.
(1 picture or pasted object on this page, not shown here)

The mark [3] stands for this setting: ITC in PBS pH 7.4, 298 K, antibody 1.95 µM in cell, peptide 40 µM titrant, independent binding model, unitless number.
The mark [4] stands for this setting: ITC in PBS pH 7.4, 298 K, independent binding model, unitless number.

As to `CC[C@H](C)[C@H](NC(=O)[C@H](CC(N)=O)NC(=O)[C@H](CCCCN)NC(=O)[C@H](CC(C)C)NC(=O)[C@H](Cc1c[nH]c2ccccc12)NC(=O)[C@H](CC(=O)O)NC(=O)CNC(=O)[C@@H](NC(=O)[C@H](CCC(=O)O)NC(=O)[C@H](CCCNC(=N)N)NC(=O)[C@H](CC(N)=O)NC(=O)[C@@H](N)CCC(=O)O)C(C)C)C(=O)N[C@@H](CC(=O)O)C(=O)N[C@@H](C)C(=O)N[C@@H](CC(C)C)C(=O)O` [Peptide 4] (H-ENREVGDWLKNIDAL-OH), in assay [1], the “KD m0g#” value is recorded as 4.77 × 10^−12 Ø, the “kD m0g#” value is 7.37e+12 s⁻¹, the “ΔGm0g#” value came out at 15.44 kcal/mol and the “ΔHm0g#” value is -0.538 kcal/mol. Also, in assay [1], the “TambΔSm0g#” value was -15.97 kcal/mol, the “binder group by ITEM-FOUR” value is reported as “strong binders (“strong binders” (group II) with ΔHm0g# values below −2 kJ/mol)”, the “Initial [%] (immune complex amount at the lowest applied ∆CV)” value (“Initial [%]” below) is reported as 41.60% and the “Final [%] (immune complex amount at the highest applied ∆CV)” value (shortened to “Final [%]”) is recorded as 23.12%. The Slope in assay [1] is reported as −0.35 %/V. The molecule further displayed a Kd in assay [2] (setting [3]) of 243 nM. In addition, the KA in assay [2] (setting [4]) is given as 4.12 × 10^6 Ø. Besides, in assay [2] (ITC), the “∆H” value was -12.45 kcal/mol, the “∆G” value was -9.027 kcal/mol and the “T∆S” value is -3.425 kcal/mol.
With `CC[C@H](C)[C@H](NC(=O)[C@H](CC(N)=O)NC(=O)[C@H](CCCCN)NC(=O)[C@H](CCCNC(=N)N)NC(=O)[C@H](Cc1c[nH]c2ccccc12)NC(=O)CNC(=O)CNC(=O)[C@@H](NC(=O)[C@H](CCC(=O)O)NC(=O)[C@H](CCCNC(=N)N)NC(=O)[C@H](CC(N)=O)NC(=O)[C@@H](N)CCC(=O)O)C(C)C)C(=O)N[C@@H](CC(=O)O)C(=O)N[C@@H](C)C(=O)N[C@@H](CC(C)C)C(=O)O` [Peptide 6] (H-ENREVGGWRKNIDAL-OH), in assay [1], the “KD m0g#” value is on record as 4.62 × 10^−12 Ø, the “kD m0g#” value is 2.9e+12 s⁻¹, the “ΔGm0g#” value worked out at 15.46 kcal/mol and the “ΔHm0g#” value was -0.442 kcal/mol. For the same molecule, in assay [1], the “TambΔSm0g#” value was -15.89 kcal/mol; the “binder group by ITEM-FOUR” value is “very strong binders (Peptides 1, 2, and 6 are “very strong binders” (group I) as their ΔHm0g# values of the gas-phase dissociation reaction are above −2 kJ/mol)”; the “Initial [%]” value was determined as 58.83%; the “Final [%]” value was determined as 23.33%. For the same molecule, the Slope in assay [1] is on record as −0.75 %/V. For the same molecule, the Kd in assay [2] (setting [3]) turned out to be 411 nM. In addition, the KA in assay [2] (setting [4]) is listed as 2.43 × 10^6 Ø. In assay [2] (ITC), the “∆H” value was -10.85 kcal/mol, the “∆G” value is -8.721 kcal/mol and the “T∆S” value is -2.13 kcal/mol.
For the molecule ENREVGDWPKNIDAL [Peptide 7], in assay [1] (ITEM analysis of peptide-antibody mixture, molar ratio 2.2:1), the “binding to anti-hcTn I antibody (in words)” value was “bound by the paratope in an unorthodox fashion”. For the same molecule, in assay [1], the “binder group by ITEM-FOUR” value is “weak and unorthodox binder”; the “Initial [%]” value is recorded as 15.37%; the “Final [%]” value was 5.90%. Further, in assay [2] (setting [3]), the KD result is recorded as “n.b”. Besides, in assay [2] (setting [4]), the KA entry is given as “n.b”. In addition, the “binding in solution (in words)” value in assay [2] (ITC, PBS pH 7.4, 298 K) is reported as “did not bind in solution”. In addition, in assay [2] (ITC), the “∆H” value is given as “n.b”, the “∆G” value is given as “n.b” and the “T∆S” value is “n.b”. In addition, the “complex formation with anti-Histag antibody (in words)” value in the assay with anti-Histag antibody is recorded as “no complex formation was detected”.
